Laboratory results taken from patent US9387218B2, “Composition for the treatment of inflammatory and immune disorders” (EAGLEPHARMA PTY LTD, priority 2012, dated 2016).

What was measured:
murine macrophages = details: in vitro; cited from earlier work
osteoarthritis = details: literature study; cited from earlier work
[1] = system: seasonal allergic rhinitis; details: oral, 2600 mg to 5200 mg per day; cited from earlier work
psoriasis = experiment: Summary of treatments: Psoriasis; type: in vivo, human; set-up: key: The + values in the table represent a qualitative assessment of the treatment of symptoms in the patient groups tests; ++: The + values in the table represent a qualitative assessment of the treatment of symptoms in the patient groups tests; +++: The + values in the table represent a qualitative assessment of the treatment of symptoms in the patient groups tests; ++++: The + values in the table represent a qualitative assessment of the treatment of symptoms in the patient groups tests; +++++: 5+ indicating the greatest improvement in symptoms; details: patient groups
Solar Keratosis = experiment: Summary of treatments: Solar Keratosis; type: in vivo, human; set-up: key: The + values in the table represent a qualitative assessment of the treatment of symptoms in the patient groups tests; ++: The + values in the table represent a qualitative assessment of the treatment of symptoms in the patient groups tests; +++: The + values in the table represent a qualitative assessment of the treatment of symptoms in the patient groups tests; ++++: The + values in the table represent a qualitative assessment of the treatment of symptoms in the patient groups tests; +++++: 5+ indicating the greatest improvement in symptoms; details: patient groups
chondrocytes = details: in vitro; cited from earlier work
TNF-α production = details: in vitro; cited from earlier work

## CS(C)(=O)=O [MSM, Methylsulphonylmethane]
Murine macrophages
  effect in murine macrophages (release of pro-inflammatory cytokines): anti-inflammatory effect
osteoarthritis
  effect in osteoarthritis: analgesic and anti-inflammatory effect
[1]
  symptoms associated with seasonal allergic rhinitis: may reduce symptoms

## NC(=O)c1cccnc1 [Nicotinamide oral (NC), nicotinamide]
psoriasis
  qualitative assessment of the treatment of symptoms: Psoriasis: +
Solar Keratosis
  qualitative assessment of the treatment of symptoms: Solar Keratosis: +

## N[C@H]1C(O)O[C@H](CO)[C@@H](O)[C@@H]1O (some centres unmarked) [glucosamine]
osteoarthritis
  effect in osteoarthritis: may improve the symptoms
chondrocytes
  synthesis of proinflammatory mediators in chondrocytes: inhibits the synthesis of proinflammatory mediators

## NCC(=O)O [glycine]
TNF-α production
  immunomodulatory action, possibly by inhibiting TNF-α production: immunomodulatory action
